The source of these data is publication PMC10911062, “Identification and structural validation of purine nucleoside phosphorylase from Plasmodium falciparum as a target of MMV000848” (The Journal of Biological Chemistry, 2023).

Where two headings read alike, the source gives them in different places.

In data set [1] the target is T1, Purine nucleoside phosphorylase (PfPNP) (Plasmodium falciparum, UniProt Q8I3X4).
T1 construct: gene PNP
T1 sequence (Q8I3X4 1-245): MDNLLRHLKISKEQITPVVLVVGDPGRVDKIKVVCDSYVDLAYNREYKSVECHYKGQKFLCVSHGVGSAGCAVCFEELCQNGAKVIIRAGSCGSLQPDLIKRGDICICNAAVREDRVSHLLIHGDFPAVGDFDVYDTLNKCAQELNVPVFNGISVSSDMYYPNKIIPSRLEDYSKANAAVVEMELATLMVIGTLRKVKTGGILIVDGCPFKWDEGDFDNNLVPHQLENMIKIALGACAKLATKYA
Briefly: xanthine oxidase-coupled inosine phosphorolysis assay. It is filed as biochemical.

The target of a further data set is T2, Falcilysin (Plasmodium falciparum, UniProt Q76NL8).
T2 construct: gene FLN
T2 sequence (Q76NL8 whole entry): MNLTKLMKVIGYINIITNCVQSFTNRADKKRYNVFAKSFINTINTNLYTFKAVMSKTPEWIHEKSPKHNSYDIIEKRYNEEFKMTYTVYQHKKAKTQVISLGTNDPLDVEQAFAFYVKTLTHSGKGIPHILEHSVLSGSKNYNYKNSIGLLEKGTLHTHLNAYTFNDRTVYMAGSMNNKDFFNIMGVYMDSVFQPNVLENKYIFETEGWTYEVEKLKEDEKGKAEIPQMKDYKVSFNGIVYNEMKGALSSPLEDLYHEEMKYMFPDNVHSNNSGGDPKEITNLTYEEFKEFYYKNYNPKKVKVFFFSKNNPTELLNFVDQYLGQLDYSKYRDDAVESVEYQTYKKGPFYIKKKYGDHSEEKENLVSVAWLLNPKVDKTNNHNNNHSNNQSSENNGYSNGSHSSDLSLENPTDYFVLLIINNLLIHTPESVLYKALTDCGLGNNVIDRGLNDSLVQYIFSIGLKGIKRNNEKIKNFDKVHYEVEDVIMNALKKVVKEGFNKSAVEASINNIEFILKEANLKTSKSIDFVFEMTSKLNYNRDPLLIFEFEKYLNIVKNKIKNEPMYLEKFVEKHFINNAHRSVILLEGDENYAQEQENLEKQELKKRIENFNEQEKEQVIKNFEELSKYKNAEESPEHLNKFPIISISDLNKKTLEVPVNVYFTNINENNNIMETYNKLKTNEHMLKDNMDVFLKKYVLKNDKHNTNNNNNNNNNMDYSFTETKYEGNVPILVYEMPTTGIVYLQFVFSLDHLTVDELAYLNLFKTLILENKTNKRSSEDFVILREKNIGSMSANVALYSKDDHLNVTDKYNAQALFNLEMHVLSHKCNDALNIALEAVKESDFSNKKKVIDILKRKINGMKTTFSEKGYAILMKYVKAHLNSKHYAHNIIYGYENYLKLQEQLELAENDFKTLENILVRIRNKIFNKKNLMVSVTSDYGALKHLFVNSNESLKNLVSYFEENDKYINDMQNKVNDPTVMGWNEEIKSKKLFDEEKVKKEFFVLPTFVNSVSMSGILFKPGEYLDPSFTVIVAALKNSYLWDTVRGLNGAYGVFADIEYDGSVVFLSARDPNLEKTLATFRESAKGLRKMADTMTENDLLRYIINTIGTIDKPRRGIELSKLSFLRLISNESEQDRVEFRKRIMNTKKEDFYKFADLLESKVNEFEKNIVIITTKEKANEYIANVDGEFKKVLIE
Briefly: MS-CETSA (ITDR), intact infected erythrocytes and parasite lysate; minimal dose threshold. It is filed as cell-based.

The target in data set [2] is T1, Purine nucleoside phosphorylase (PfPNP). As to the kind of experiment: ITC; cocrystal structure at […] Å; also DSF, CETSA and enzyme inhibition (IC50 […], Ki […]). It is filed as binding.
Data set [3] has the same target. As to the kind of experiment: Michaelis-Menten kinetics of the purified enzyme. In kind it is biochemical.
Data set [4] concerns the molecule itself. As to the kind of experiment: crystal structure; co-crystal of PfPNP (37 mg/ml) with 3 mM MMV000848, sitting-drop vapor diffusion at 20 °C, 10% (w/v) PEG 1000; 1.85 Å, space group R32; hexamer formed through crystallographic symmetry.

A word on the IC50: it is the concentration needed to halve the response being measured. One may read the Kd as the constant that tells how readily two partners part at equilibrium. Read a low Kd as tighter binding. A word on the stoichiometry N: it is a count of units in the complex or per binding partner.

On to `OC(c1cc(C(F)(F)F)nc2c(C(F)(F)F)cccc12)C1CCCCN1` (racemic) [mefloquine], for which inhibition in data set [1] was half-maximal at 327 µM (IC50).

Turning to `OC(CNC1CCCC1)Cn1c2ccccc2c2ccccc21` (stereo not drawn) [MMV000848, 1-carbazol-9-yl-3-cyclopentylamino-propan-2-ol], the “MDT” value at Falcilysin is recorded as 749.91 nM. Besides, the Kd in data set [2] turned out to be 1.52 µM. Regarding `O=c1[nH]cnc2c1ncn2[C@@H]1O[C@H](CO)[C@@H](O)[C@H]1O` [inosine], in data set [3], the “Michaelis-Menten kinetics of the purified enzyme” value is on record as “Measurements of KM,app (apparent KM) of inosine was made in the presence of various concentrations of MMV000848”. As for `C=C[C@H]1C[N@@]2CC[C@H]1C[C@H]2[C@H](O)c1ccnc2ccc(OC)cc12` [quinine], the IC50 in data set [1] (read-out: IC50) worked out at 11.3 µM.

B1: Plasmodium falciparum purine nucleoside phosphorylase (enzyme)
chain: MDNLLRHLKISKEQITPVVLVVGDPGRVDKIKVVCDSYVDLAYNREYKSVECHYKGQKFLCVSHGVGSAGCAVCFEELCQNGAKVIIRAGSCGSLQPDLIKRGDICICNAAVREDRVSHLLIHGDFPAVGDFDVYDTLNKCAQELNVPVFNGISVSSDMYYPNKIIPSRLEDYSKANAAVVEMELATLMVIGTLRKVKTGGILIVDGCPFKWDEGDFDNNLVPHQLENMIKIALGACAKLATKYA
notes: Purine nucleoside phosphorylase of Plasmodium falciparum, PlasmoDB PF3D7_0513300; gene subcloned into pNIC-CH; Homo-hexamer (three 2-fold symmetrical dimers around a crystallographic three-fold axis); one protein chain in the asymmetric unit; also called PfPNP; PNP; source: Rosetta BL21-DE3 Escherichia coli, purified (IMAC on HisTrapHP, SEC on Superdex 200)
Regarding B1, the “stoichiometry N” value in data set [4] amounted to 6.
